This is an account of results in patent US8802720B2, “Acylamino-substituted fused cyclopentanecarboxylic acid derivatives and their use as pharmaceuticals” (SANOFI, priority 2008, dated 2014).

A value given as a limit tells only on which side of the number the result lay.

Chain of human Edg-2 receptor (LPA1 receptor) (Q92633 whole entry): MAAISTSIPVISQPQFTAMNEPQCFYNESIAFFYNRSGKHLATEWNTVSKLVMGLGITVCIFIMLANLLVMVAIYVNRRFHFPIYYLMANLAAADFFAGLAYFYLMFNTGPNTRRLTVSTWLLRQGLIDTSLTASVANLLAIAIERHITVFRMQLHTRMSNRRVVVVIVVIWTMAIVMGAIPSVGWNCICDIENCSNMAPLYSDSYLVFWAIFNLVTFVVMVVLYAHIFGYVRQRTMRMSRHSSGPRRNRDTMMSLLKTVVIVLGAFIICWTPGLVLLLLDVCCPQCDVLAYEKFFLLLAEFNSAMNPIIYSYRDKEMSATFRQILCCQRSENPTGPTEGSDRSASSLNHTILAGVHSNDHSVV

The experiment concerns the target human Edg-2 receptor (LPA1 receptor) (Homo sapiens, UniProt Q92633). The experiment can be described thus: Edg-2 receptor inhibition by FLIPR calcium fluorescence measurement (LPA-mediated calcium liberation). As to conditions: CHO cells stably overexpressing human Edg-2 receptor; LPA 18:1 100 nM; fluo-4 fluorescence; triplicate; read-out: Inhibitory concentrations IC50 for inhibition of the Edg-2 receptor. Format: cell-based. Put shortly: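 CHO cells stably overexpressing human Edg-2 were fluo-4 loaded and pre-incubated ~5 min with compound (≤0.3% DMSO) in HBSS/HEPES/probenecid, pH 7.5. Then LPA 18:1 at 100 nM final was added. Peak calcium fluorescence over ~3 min, baseline-corrected versus DMSO, gave % inhibition in triplicate and IC50.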
As for `Cc1cccc(CCOc2cc(C(=O)NC3(C(=O)O)Cc4ccccc4C3)ccc2OCCO)c1` [Example 270, 2-[4-(2-Hydroxy-ethoxy)-3-(2-m-tolyl-ethoxy)-benzoylamino]-indane-2-carboxylic acid], the IC50 was less than 100 nM.
As to `Cc1cccc(CCOc2cc(C(=O)NC3(C(=O)O)Cc4ccccc4C3)ccc2OCC(=O)O)c1` [Example 271, 2-[4-Carboxymethoxy-3-(2-m-tolyl-ethoxy)-benzoylamino]-indane-2-carboxylic acid], the IC50 lay within 100 to 1000 nM.
In the case of `Cc1cccc(CCOc2cc(C(=O)NC3(C(=O)O)Cc4ccccc4C3)ccc2OC2CC2)c1` [Example 272, 2-[4-Cyclopropoxy-3-(2-m-tolyl-ethoxy)-benzoylamino]-indane-2-carboxylic acid] it was 100 to 1000 nM; in that of `CCc1sc(C(=O)NC2(C(=O)O)Cc3ccccc3C2)nc1OCCc1cccc(C)c1` [Example 273, 2-{[5-Ethyl-4-(2-m-tolyl-ethoxy)-thiazole-2-carbonyl]-amino}-indane-2-carboxylic acid], 100 to 1000 nM.
`COc1ncc(C(=O)NC2(C(=O)O)Cc3ccccc3C2)cc1OCCc1cc(C)ccc1F` [Example 274, 2-({5-[2-(2-Fluoro-5-methyl-phenyl)-ethoxy]-6-methoxy-pyridine-3-carbonyl}-amino)-indane-2-carboxylic acid]: the IC50 is less than 100 nM.
In the case of `COc1ncc(C(=O)NC2(C(=O)O)Cc3ccccc3C2)cc1OCCc1cccc(CCO)c1` [Example 275, 2-[(5-{2-[3-(2-Hydroxy-ethyl)-phenyl]-ethoxy}-6-methoxy-pyridine-3-carbonyl)-amino]-indane-2-carboxylic acid] it was less than 100 nM; in that of `COc1c(F)cc(C(=O)NC2(C(=O)O)Cc3ccccc3C2)cc1OCCc1cccc(CCO)c1` [Example 276, 2-(3-Fluoro-5-{2-[3-(2-hydroxy-ethyl)-phenyl]-ethoxy}-4-methoxy-benzoylamino)-indane-2-carboxylic acid], less than 100 nM.
Regarding `COc1ccc(C(=O)NC2(C(=O)O)Cc3ccccc3C2)c(F)c1OCCc1cccc(C)c1` [Example 277, 2-[2-Fluoro-4-methoxy-3-(2-m-tolyl-ethoxy)-benzoylamino]-indane-2-carboxylic acid], the IC50 lay in the range of 1000 to 30000 nM.
In the case of `COc1ccc(C(=O)NC2(C(=O)O)Cc3ccccc3C2)cc1OCCC1CCCC(C)C1` (stereo not shown) [Example 278, 2-{4-Methoxy-3-[2-(3-methyl-cyclohexyl)-ethoxy]-benzoylamino}-indane-2-carboxylic acid] it was 1000 to 30000 nM; in that of `COc1ccc(C(=O)NC2(C(=O)O)Cc3ccccc3C2)cc1COCc1cccc(C)c1` [Example 279, 2-[4-Methoxy-3-(3-methyl-benzyloxymethyl)-benzoylamino]-indane-2-carboxylic acid], 100 to 1000 nM.
Under `COc1ccc(C(=O)NC2(C(=O)O)Cc3ccccc3C2)cc1-c1ccc(Cl)cc1` [Example 280] stands 100 to 1000 nM.
Take `COc1ccc(C(=O)NC2(C(=O)O)Cc3ccccc3C2)cc1-c1ccccc1Cl` [Example 281]: the IC50 lay within 1000 to 30000 nM.
In the case of `COc1ccc(C(=O)NC2(C(=O)O)Cc3ccccc3C2)cc1-c1cncc(Cl)c1` [Example 282, 2-[3-(5-chloro-pyridin-3-yl)-4-methoxy-benzoylamino]-indane-2-carboxylic acid] it was 100 to 1000 nM; in that of `COc1ccc(C(=O)NC2(C(=O)O)Cc3ccccc3C2)cc1-c1cccc(C#N)n1` [Example 283], 1000 to 30000 nM.
In the case of `COc1ccc(C(=O)NC2(C(=O)O)Cc3ccccc3C2)cc1-c1cncc(C#N)c1` [Example 284] it was less than 100 nM; in that of `COc1ccc(C(=O)NC2(C(=O)O)Cc3ccccc3C2)cc1-c1cccc(C)c1` [Example 286], less than 100 nM; in that of `COc1ccc(C(=O)NC2(C(=O)O)Cc3ccccc3C2)cc1-c1cccc(NC(C)=O)c1` [Example 287], 100 to 1000 nM.
Consider `CCOc1cccc(-c2cc(C(=O)NC3(C(=O)O)Cc4ccccc4C3)ccc2OC)c1` [Example 288], for which the IC50 was 100 to 1000 nM.
In the case of `COc1ccc(C(=O)NC2(C(=O)O)Cc3ccccc3C2)cc1-c1cc(C(F)(F)F)ccc1Cl` [Example 289] it was 100 to 1000 nM; in that of `CCCc1ccc(-c2cc(C(=O)NC3(C(=O)O)Cc4ccccc4C3)ccc2OC)cc1` [Example 290], 1000 to 30000 nM; in that of `COc1ccc(C(=O)NC2(C(=O)O)Cc3ccccc3C2)cc1-c1ccc(C)c(C)c1` [Example 291], 100 to 1000 nM.
In the case of `COc1ccc(C(=O)NC2(C(=O)O)Cc3ccccc3C2)cc1-c1ccc(Cl)c(Cl)c1` [Example 292], the IC50 is less than 100 nM.
On to `COc1ccc(C(=O)NC2(C(=O)O)Cc3ccccc3C2)cc1-c1cccc(Cl)c1Cl` [Example 293], for which the IC50 was less than 100 nM.
Consider `COc1ccc(C(=O)NC2(C(=O)O)Cc3ccccc3C2)cc1-c1cc(C)c(OC)c(C)c1` [Example 294], for which the IC50 is less than 100 nM.
Turning to `COc1ccc(C(=O)NC2(C(=O)O)Cc3ccccc3C2)cc1-c1csc2ccccc12` [Example 295], the IC50 is less than 100 nM.
For the molecule `COc1ccc(Cl)cc1-c1cc(C(=O)NC2(C(=O)O)Cc3ccccc3C2)ccc1OC` [Example 296], the IC50 was less than 100 nM.
Under `COc1ccc(C(=O)NC2(C(=O)O)Cc3ccccc3C2)cc1-c1cccc(C#N)c1` [Example 297] stands less than 100 nM; under `COc1ccc(C(=O)NC2(C(=O)O)Cc3ccccc3C2)cc1-c1ccccc1CN(C)C` [Example 299], 1000 to 30000 nM.
Turning to `COc1ccc(C(=O)NC2(C(=O)O)Cc3ccccc3C2)cc1-c1cc(C)cs1` [Example 300], the IC50 fell in the range of 100 to 1000 nM.
Under `COc1ccc(C(=O)NC2(C(=O)O)Cc3ccccc3C2)cc1-c1cccc(SC)c1` [Example 301] stands less than 100 nM.
For the molecule `COc1ccc(C(=O)NC2(C(=O)O)Cc3ccccc3C2)cc1-c1cccc(OC(F)(F)F)c1` [Example 302], the IC50 was less than 100 nM.
On to `COc1ccc(C(=O)NC2(C(=O)O)Cc3ccccc3C2)cc1-c1cc(Cl)ccc1Cl` [Example 303], for which the IC50 was less than 100 nM.
As to `COc1ccc(F)cc1-c1cc(C(=O)NC2(C(=O)O)Cc3ccccc3C2)ccc1OC` [Example 304], the IC50 is less than 100 nM.
Regarding `COc1ccc(C(=O)NC2(C(=O)O)Cc3ccccc3C2)cc1-c1cccc(OCc2ccccc2)c1` [Example 305], the IC50 lay in the range of 100 to 1000 nM.
Take `COc1ccc(C(=O)NC2(C(=O)O)Cc3ccccc3C2)cc1-c1cc(F)c(F)c(F)c1` [Example 306]: the IC50 was less than 100 nM.
Under `COc1ccc(C(=O)NC2(C(=O)O)Cc3ccccc3C2)cc1-c1cccc(NS(C)(=O)=O)c1` [Example 307] stands less than 100 nM.
`CCSc1cccc(-c2cc(C(=O)NC3(C(=O)O)Cc4ccccc4C3)ccc2OC)c1` [Example 308]: the IC50 is less than 100 nM.
Take `COc1ccc(C(=O)NC2(C(=O)O)Cc3ccccc3C2)cc1-c1cccc(S(C)(=O)=O)c1` [Example 309]: the IC50 is 100 to 1000 nM.
Regarding `COc1ccc(C(=O)NC2(C(=O)O)Cc3ccccc3C2)cc1-c1ccc(Cl)c(C(F)(F)F)c1` [Example 310], the IC50 lay in the range of 100 to 1000 nM.
For `CCS(=O)(=O)c1cccc(-c2cc(C(=O)NC3(C(=O)O)Cc4ccccc4C3)ccc2OC)c1` [Example 312, 2-[(3′-ethanesulfonyl-6-methoxy-biphenyl-3-carbonyl)-amino]-indane-2-carboxylic acid], the IC50 is 100 to 1000 nM.
Under `COc1ccc(C(=O)NC2(C(=O)O)Cc3ccccc3C2)cc1-c1cc(C)cc(C(C)(C)C)c1` [Example 313] stands less than 100 nM.
`COc1ccc(C(=O)NC2(C(=O)O)Cc3ccccc3C2)cc1-c1cc(Cl)ccc1C` [Example 314]: the IC50 is less than 100 nM.
For the molecule `COCc1cccc(-c2cc(C(=O)NC3(C(=O)O)Cc4ccccc4C3)ccc2OC)c1` [Example 315], the IC50 was less than 100 nM.
In the case of `COCc1ccccc1-c1cc(C(=O)NC2(C(=O)O)Cc3ccccc3C2)ccc1OC` [Example 316] it was 100 to 1000 nM.
Under `COc1ccc(C(=O)NC2(C(=O)O)Cc3ccccc3C2)cc1-c1cc(C)c(C)cc1C` [Example 317] stands 100 to 1000 nM; under `CCCOc1cccc(-c2cc(C(=O)NC3(C(=O)O)Cc4ccccc4C3)ccc2OC)c1` [Example 318], less than 100 nM; under `COc1ccc(C(=O)NC2(C(=O)O)Cc3ccccc3C2)cc1-c1cccc(OC(C)C)c1` [Example 319], 100 to 1000 nM.
Under `COc1ccc(C(=O)NC2(C(=O)O)Cc3ccccc3C2)cc1-c1cc(C(F)(F)F)ccc1F` [Example 320] stands less than 100 nM; under `CCCOc1ccc(-c2cc(C(=O)NC3(C(=O)O)Cc4ccccc4C3)ccc2OC)cc1Cl` [Example 321], 1000 to 30000 nM; under `COc1ccc(C(=O)NC2(C(=O)O)Cc3ccccc3C2)cc1-c1ccc(C(F)(F)F)c(Cl)c1` [Example 322], less than 100 nM.
On to `CNC(=O)c1cccc(-c2cc(C(=O)NC3(C(=O)O)Cc4ccccc4C3)ccc2OC)c1` [Example 323], for which the IC50 lay within 1000 to 30000 nM.
In the case of `COc1ccc(C(=O)NC2(C(=O)O)Cc3ccccc3C2)cc1-c1cccc(OCC2CC2)c1` [Example 324] it was 1000 to 30000 nM; in that of `COc1ccc(-c2cc(C(=O)NC3(C(=O)O)Cc4ccccc4C3)ccc2OC)cc1Cl` [Example 325], less than 100 nM; in that of `COc1ccc(C(=O)NC2(C(=O)O)Cc3ccccc3C2)cc1-c1ccc2occc2c1` [Example 326], 100 to 1000 nM.
`COc1ccc(C(=O)NC2(C(=O)O)Cc3ccccc3C2)cc1-c1cccc(Cl)c1C` [Example 327]: the IC50 is less than 100 nM.
For the molecule `COc1ccc(C(=O)NC2(C(=O)O)Cc3ccccc3C2)cc1-c1cccc(CCC(=O)O)c1` [Example 328], the IC50 lay within 100 to 1000 nM.
As to `COc1ccc(C(=O)NC2(C(=O)O)Cc3ccccc3C2)cc1-c1ccsc1Cl` [Example 329], the IC50 lay within 1000 to 30000 nM.
In the case of `COc1ccc(C(=O)NC2(C(=O)O)Cc3ccccc3C2)cc1-c1ccc2c(ccn2C)c1` [Example 330] it was 1000 to 30000 nM.
